Assay results taken from patent publication US8986696B2, “Trans-capsular administration of p38 map kinase inhibitors into orthopedic joints” (DePuy Mitek, Inc., priority 2007, dated 2015).

Key:
[1] = test system: IL-1β-stimulated GAG release, bovine chondrocyte pellets / ARC tissues; assay: chondrocyte pellet culture model: GAG degradation; type: cell-based; details: for GAG Release: Pellet Assay
Text: (§1) Calf articular cartilage was obtained from the knee joints of eight to twelve month old animals and was processed within twenty-four hours after sacrifice. After removal of muscle and ligament, the cartilage was kept moist using phosphate buffer solution (PBS) to prevent tissue dehydration, and was aseptically peeled off from subchondral bone with a scalpel, and the cartilage pieces were further minced into smaller pieces (˜0.3-0.5×˜0.2-0.5 cm cubes). […] Chondrocytes were then enzymatically isolated from the tissue by incubation for overnight at 37° C. with gentle agitation in 0.2% collagenase in Dulbecco's modified eagle media (DMEM). After removal of tissue debris by filtration through cell strainer and the residual collagenase by 3× wash in PBS, cells were finally resuspended at a density of 2.5×10^6 cells/ml in chondrocyte medium. A 1 ml aliquot of the cell suspension was dispensed into either a 15 ml Falcon centrifuge tube or a 96 deep-well plate and centrifuged at 2000×g for five minutes. The chondrocyte pellets were incubated at 37° C. in a humidified atmosphere of 5% CO2 for two to three weeks with a medium change every other day.
(§2) As an alternative to using calf articular cartilage, a commercial Alginate Recovered Chondrocytes (ARC) system was also used (Articular Engineering, LLC (Northbrook, Ill.)). Use of the commercial system cut down on labor and time in producing chondrocyte pellet. This system produced cartilaginous tissue in vitro using bovine chondrocytes. The first step consisted of culturing chondrocytes in alginate under conditions optimal for the formation of a cell-associated matrix (CM). The second step allowed these cells with their CM, after recovery, to rapidly form and become integrated into a solid mass of cartilage on a porous insert within two weeks. This tissue is rich in cells surrounded by a cell-associated matrix that is degraded rapidly when the cells are exposed to IL-1. ARC tissues in 3 mm punches at delivery were first dispensed into a 96 deep-well plate, one punch per well, for compound treatment. The subsequent procedures were the same as those used for the chondrocyte pellets.
(§3) Chondrocyte pellets were washed once with 1 ml of Chondrocyte Stimulation Medium and equilibrated in the same medium at room temperature for fifteen to thirty minutes. Compounds were dissolved in H2O, Ethanol or dimethyl sulfoxide (DMSO) (10^−2 M) according to suppliers' instructions and further diluted with Chondrocyte Stimulation Medium to the required concentrations. DMSO concentrations in the culture media should not exceed 1%; this concentration of DMSO has no effect on cartilage proteoglycan metabolism in response to cytokines.
[…] At the end of the incubation, media and pellets were harvested and frozen for further analysis. Pellets were also fixed as needed in 4% (w/v) paraformaldehyde in PBS for histology analysis.
Glycosaminoglycan (GAG) levels in the culture media were determined by measuring the amount of polyanionic material reacting with 1,9-dimethylmethylene blue (DME) as detected by absorbance at 525 nm, using shark chondroitin sulfate as a standard. The DME blue dye-binding solution was prepared by dissolving 16 mg of DME blue in a solution containing 0.304% glycine, 0.23% sodium chloride (NaCl), 9.5 mM hydrochloric acid (HCl), pH=3.0 with absorbance at 525 equal to 0.31. Proteoglycans and proteoglycan metabolites in chondrocyte pellet were released by digesting the pellet with 125 μg/ml of papain in 0.1 M PBS, pH 6.0, 5 mM cysteine, 5 mM ethylene-diamine-tetra-acetic acid disodium salt (Na2EDTA) at 50° C. for overnight. Results are reported as either micrograms of GAG per milliliter or percent of total GAG released into culture medium.

[2] = test system: injured cartilage explants, GAG release; assay: drop tower design model: GAG release; type: cell-based, bovine
Text: (§4) The device comprises a vertical rail that guides a sliding weight from 0.1 kg to 3 kg directly onto a force transducer which is situated at the bottom of the device. A sphere-shaped 2 mm indenter resting on a specimen is located at the bottom of the vertical rail. The indenter is held by a stop screw. The specimen is rigidly attached to a tissue holder underneath the indenter, to avoid side movements, the specimen is rigidly attached to the tissue holder. In this manner, the force transducer transduces a force indirectly onto the specimen. Adjusting the weight of a mass and height from which the mass drops varies the magnitude of the intended impact. For example, a weight mass (e.g., […]) held by a weight holder can be released from a height of e.g., 36 cm and dropped onto the force transducer.
Samples for compound evaluation were tested using either of two different methods to induce inflammatory conditions. One method utilized media conditioned from peripheral blood mononuclear cells (PBMCs) stimulated with LPS (“+LPS”) or non-inflammatory media without LPS (“−LPS”). Another method utilized the absence or presence of a cocktail of cytokines.
In the first method, bovine or human PBMCs were freshly prepared using Ficoll gradient by Lampire Biological Laboratories, Inc. PBMCs in RPMI w/10% FCS at delivery were spun down at 1500 rpm for twenty minutes and the cell pellet was washed twice with 1×PBS to wash off the residual Ficoll. The cells were then resuspended at a density of 1×10^6/ml in RPMI supplemented with 10% FCS, 1× Antibiotics-Antimycotics. The suspension was divided into two aliquots. One aliquot was stimulated with 10 μg/ml of LPS and the other was not stimulated. Both aliquots were then incubated at 37° C., 5% CO2 for twenty-four to seventy-two hours. The conditioned media with or without LPS stimulation are collected, aliquoted, and stored in −80° C. for a maximum of three months. Each conditioned medium was assessed for levels of pro-inflammatory cytokines to ensure their secretion from PBMC. A representative cytokine, IL-6, was assayed by ELISA using a Human IL-6 Quantikine kit and it was shown that the LPS-stimulated medium had at least 10 ng/ml of IL-6, while IL-6 was undetectable in the unstimulated medium.
In the second method, the explants were cultured at 37° C., 5% CO2 either in stimulated or non-stimulated conditioned medium as described above or in defined medium containing DMEM supplemented with 1% FCS, 1× insulin-transferrin-sodium selenite media supplement and Antibiotics-Antimycotics in the presence or absence of a cocktail of cytokines containing 10 ng/ml of IL-1β, 100 ng/ml of TNFα and 5 ng/ml of IFN-γ. The compounds were solubilized in H2O, Ethanol or DMSO (10^−2 M) according to suppliers' instructions and further diluted with either conditioned medium stimulated with or without LPS to the required concentrations. DMSO concentrations in the culture media never exceeded 1%. This concentration of DMSO has no effect on cartilage proteoglycan metabolism in response to cytokines. The injured and noninjured cartilage explants were treated with compound-containing medium for three to five days. The specimens were first treated with compounds at desired concentrations at 37° C. for one hour and then incubated for three to five days in the absence or presence of the cocktail of cytokines. At the end of the incubation, media and cartilage samples were harvested and frozen for further analysis.
Glycosaminoglycan (GAG) levels in the culture media or cartilage were determined by measuring the amount of polyanionic material reacting with 1,9-dimethylmethylene blue (DME) as detected by absorbance at 525 nm, using shark chondroitin sulfate as a standard. The DME blue dye-binding solution was prepared by dissolving 16 mg of DME blue in a solution containing 0.304% glycine, 0.23% NaCl, 9.5 mM HCl, pH=3.0 with A525 equaling 0.31. […]

[3] = test system: chondrocytes; type: cell-based
Text: as §1, §2, §3
(§5) The pellets were first treated with compounds at desired concentrations at 37° C. for one hour and then incubated for three to five days in the absence or presence of 10 ng/ml of IL-1β. At the end of the incubation, media and pellets were harvested and frozen for further analysis. Pellets were also fixed as needed in 4% (w/v) paraformaldehyde in PBS for histology analysis.
The LDH activity was determined colorimetrically in an enzymatic test based on the conversion of lactic acid to pyruvate in the presence of chromagenic substrate tetrazolium salt INT that was reduced to formazan.

[4] = test system: injured cartilage explants; type: cell-based
Text: as §4

[5] = test system: IL-1β-stimulated PGE2 synthesis, bovine chondrocyte pellets / ARC tissues; assay: chondrocyte pellet culture model: PGE2; type: cell-based; details: for PGE2 Inhibition: Pellet Assay
Text: as §1, §2, §3, §5
Prostaglandin E2 (PGE2) was measured with a STAT-Prostaglandin E2 EIA ELISA kit (Cayman Biochemicals). This assay is based on the competition between PGE2 from 50 μl samples and a PGE2-alkaline phosphatase conjugate for a limited amount of PGE2 monoclonal antibody in a reaction volume of 150 μl at room temperature for one hour. The antibody-PGE2 complex bound to a goat polyclonal anti-mouse IgG that had been previously attached to the well. After washing to remove any unbound reagents, para-nitrophenyl phosphate (pNPP) was added to the well. The product of this enzymatic reaction absorbs strongly at 412 nm. Because of the large range in response to IL-1β and other cytokines, PGE2 values were converted to log scale prior to doing t-tests.

[6] = test system: IL-1β-stimulated NO production, bovine chondrocyte pellets / ARC tissues; assay: chondrocyte pellet culture model: total nitrite/nitrate (NO); type: cell-based; details: Pellet Assay
Text: as §1, §2, §3, §5
Nitrate/Nitrite levels were measured using the Griess reaction (Green L. C. et al., “Analysis of Nitrate, Nitrite, and [15N]nitrate in Biological Fluids,” Anal. Biochem. 126: 131-138 (1982)) with aNitrate/Nitrite Colorimetric Assay Kit (Cayman Chemicals), the contents of which are incorporated herein by reference. The assay involved a simple two-step process. The first step involved conversion of nitrate in 50 μl of culture medium to nitrite utilizing nitrate reductase in a reaction volume of 100 μl at room temperature for two hours. The second step involved the addition of 50 μl of both Griess Reagent 1 and 2, which converted nitrite into a deep purple azo compound in ten minutes. Photometric measurement of the absorbance at 540 or 550 nm due to this azo chromophore accurately determined nitrite concentration. […]

[7] = test system: PG release, arthritic joint tissues; details: 10^−5 moles/liter or 10^−7 moles/liter; cited from earlier work

For `CN1C(C(=O)Nc2ccccn2)=C(O)c2ccccc2S1(=O)=O` [Piroxicam, reference compound], the “GAG Release” value [1] was “No effect” and the “GAG, inhibition of degradation/release” value ([2]; injured cartilage explants, inflammatory conditions) was “No effect”.
With `CO[C@H]1C[C@@H]2CC[C@@H](C)[C@@](O)(O2)C(=O)C(=O)N2CCCC[C@H]2C(=O)O[C@H]([C@H](C)C[C@@H]2CC[C@@H](O)[C@H](OC)C2)CC(=O)[C@H](C)/C=C(\C)[C@@H](O)[C@@H](OC)C(=O)[C@H](C)C[C@H](C)/C=C/C=C/C=C/1C` [Rapamycin, reference compound] the “cytotoxicity to chondrocytes (LDH, words)” value [3] was “little toxicity”, the inhibition at 0.01 µM ([2]; Bos taurus, at 0.01 μM) was 84% and the “cytotoxicity (LDH, words)” value [4] was “little cytotoxicity”.
In the case of `O=C(O)c1cc(O)c2c(c1)C(=O)c1cccc(O)c1C2=O` [Rhein, reference compound], the “lowest concentration inhibiting proteoglycan degradation” value ([1]; 10 ng/ml IL-1β, five days) was at most 0.035 µM, the “PGE2 synthesis” value ([5]; diacerein at 5.4 μM, rhein at 0.35 μM, 10 ng/ml IL-1β) was “no effect” and the “cytotoxicity (LDH, words)” value [4] was “tolerant”.
For `CC(C(=O)O)c1ccc(C(=O)c2ccccc2)s1` (stereo not shown) [Tiaprofenic Acid, reference compound], the “GAG Release” value [1] was “No effect”.
For `Cc1ccc(C(=O)c2ccc(CC(=O)O)n2C)cc1` [Tolmetin, reference compound], the “GAG Release” value [1] was “No effect” and the “NO Inhibition” value [6] was “No effect”.
In the case of `CC1(C)O[C@@H]2[C@@H](CO[C@@]3(COS(N)(=O)=O)OC(C)(C)O[C@@H]23)O1` [Topramax, reference compound], the “GAG Release” value [1] was “No effect”, the “NO Inhibition” value [6] was “No effect” and the “PGE2 Inhibition” value [5] was “No effect”.
For `O=C(O)Cc1ccccc1Nc1c(Cl)cccc1Cl` [diclofenac], the “PG release from arthritic joint tissues” value [7] is given as “significantly inhibited”.
For `COc1ccc2c(c1)c(CC(=O)O)c(C)n2C(=O)c1ccc(Cl)cc1` [indomethacin], the “PG release from arthritic joint tissues” value [7] is listed as “significantly inhibited”.
In the case of Madecassoside, the “GAG Release” value [1] was “No effect”, the “NO Inhibition” value [6] was “No effect” and the “PGE2 Inhibition” value [5] was “No effect”.
